Results from patent US20070248597A1, “Methods of decreasing vascular calcification using IL-1 inhibitors” (priority 2005, published 2007).

Assays:
Type in all cases: in vivo, rat
5/6 nx uremic rats = assay: Aortic calcification (Von Kossa, pathologist score) in 5/6-nephrectomy model of CKD and secondary HPT; details: for aortic calcification severity (Von Kossa calcification score): 5/6Nx male SD rats, uremia established 8 weeks, treatment week 4, Fc-IL-1ra 100 mg/kg/day s.c., calcitriol 30 ng
Excerpt: We administered the IL-1 receptor antagonist Fc-IL-1ra, calcitriol, the combination of Fc-IL-1ra+calcitriol) or their corresponding vehicles to a rodent animal model of chronic kidney disease (CKD) and secondary hyperparathyroidism (SHPT) induced by subtotal nephrectomy (5/6Nx). The experimental paradigm is shown in FIG. 5, with the treatment groups set out in Table 2 below.
Aortas were removed at treatment week 4 (trt wk4), fixed and stained for mineralization (Von Kossa) and the severity determined and scored by a pathologist blinded to the treatments (Calcification Scores: 0=no calcification; 1=minimal; 2=mild; 3=moderate; 4=marked; 5=severe).

[1] = test system: adenine-induced CKD/SHPT rats; assay: Parathyroid gland size in adenine model of CKD/SHPT; details: FIG. 3A, p=0.009 vs A5S vehicle (n=13 vs n=8)
[2] = test system: adenine-induced CKD/SHPT rats; assay: Aortic vascular calcification (bone mineral density of isolated aortas, Dxa scanner) in adenine model of CKD/SHPT
Method: (§1) Adenine, included as a dietary supplement (0.75%), was fed to adult, male Sprague-Dawley rats. Blood for chemistry analyses (total serum calcium, phosphorous, blood urea nitrogen [BUN], creatinine, PTH) was collected before and again on drug treatment days 0 (pretreatment) and 21 from the retro-orbital sinus of anesthetized rats. Blood (0.5 ml) was collected for PTH levels into SST (clot activator) brand blood tubes and allowed to clot. Serum was removed and stored at −70° C. until assayed. PTH levels were quantified according to the vendor's instructions using rat PTH (1-34) immunoradiometric assay kit (Immutopics, San Clemente, Calif.). Calcium and phosphorous were measured using a blood chemistry analyzer (AU 400; Olympus, Melville, N.Y.).
Vascular calcification was assessed by quantifying the bone mineral density from fixed (formalin, PBS), isolated aortas using a Dxa scanner (Piximus densitomer, GE Healthcare).

[3] = test system: adenine-induced CKD/SHPT rats; assay: Blood chemistry (BUN, creatinine, PTH) in adenine model of CKD/SHPT
Method: as §1

Molecule | aortic calcification severity (Von Kossa calcification score) (5/6 nx uremic rats) | incidence of severe calcification (5/6 nx uremic rats; 5/6Nx uremic rats, treatment week 4, n=8 evaluated) | size of the parathyroid gland [1] | calcitriol (Vitamin D3)-induced aortic vascular calcification (5/6 nx uremic rats; 5/6Nx rats, Fc-IL-1ra 100 mg/kg/day s.c. + calcitriol 30 ng, week 4, FIG. 6) | bone mineral density (aortic calcification) ([2]; adenine diet 0.75%, male Sprague-Dawley rats, Fc-IL-1ra n=7 vs A5S vehicle n=4, p=0.005 unpaired t-test) | development of aortic vascular calcification (bone mineral density content of the aorta) ([2]; adenine model, FIG. 2) | animals with no calcification ([2]; adenine model, Fc-IL-1ra-treated animals) | BUN [3] | creatinine levels [3] | serum PTH levels ([3]; FIG. 3B, p=0.028 vs A5S vehicle (n=7 vs n=4))
C=C1/C(=C\C=C2/CCC[C@]3(C)[C@@H]([C@H](C)CCCC(C)(C)O)CC[C@@H]23)C[C@@H](O)C[C@@H]1O [calcitriol, 1α, 25-dihydroxycholecalciferol, reference compound] | marked to severe | 50% | – | – | – | – | – | – | – | –
Fc-IL-1ra: molecule having the sequence shown in FIG. 4 (SEQ ID NO: 1); fusion protein comprising IL-1ra; IL-1 receptor antagonist | did not cause vascular calcification | – | reduced | attenuated | 0 g/cm2 | prevented | seven of seven | did not affect | did not affect | decreased
